The values below come from PMC5838563, “Compounds producing an effective combinatorial regimen for disruption of HIV‐1 latency” (EMBO Molecular Medicine, 2017).

Assay [1] concerns HIV‐1 LTR (Jurkat^Tat LTR‐luciferase cell line). As to the kind of experiment: Jurkat^Tat LTR‐luciferase reporter assay for HIV‐1 latency reversal. The note with it: for EC50: Human immunodeficiency virus 1, 24 h treatment, percent activation relative to PMA; for latency‐reversing activity of PH02 analogs compared with PH02: 24 h, also in Jurkat^Tat LTR‐DsRed clones #11 and #131. Type of assay: cell-based. The method, then:
Activity of compounds identified for latency‐reversing activity in the primary screens was further validated by examining the effect of a single concentration (7 μM) on an alternative reporter cell line, bearing an integrated HIV‐1 reporter virus where luciferase expression is produced from the 5′ LTR, in cells constitutively expressing the viral TAT protein (Fig 2A), referred to as Jurkat^Tat LTR‐luciferase. Importantly, this cell line has the HIV‐1 reporter virus integrated at a different chromosomal location than that of the A1 J‐Lat cell line and also enables validation of provirus reactivation with a second enzymatic luciferase assay. In these assays, after 24‐h treatment we observed 10 compounds that produced significant induction of luciferase activity, including two compounds from the KD2 library, three from the CCBN library and five compounds from the DIVERSet. Compounds that produced significant effects in these secondary assays were re‐ordered from their respective suppliers and examined in more detail using the HIV‐luciferase reporter cell line. […] These five compounds represent diverse chemical structures (Fig 2G).
Figure 2 Concentration–response analysis for five selected PH compounds • A Schematic representation of the pTY‐LAI‐luciferase reporter virus used in secondary screening assays, where luciferase expression is under the control of the 5′ LTR, in cloned lines derived from Jurkat^TAT cells bearing single‐copy integrants. • B–F Luciferase activity was measured from reporter cells treated for 24 h with the indicated compound concentrations. Results are presented as percent activation relative to PMA‐treated controls. The EC50 for each compound is indicated. Mean and standard error (SE) for the results are determined from three biological replicates (n = 3) and technical duplicates. • G Illustration of chemical structures of the PH compounds.
Luciferase assays were performed in 96‐well plate format, where 100 μl of cell culture containing 1 × 10^5 luciferase reporter cells was plated per well. After the indicated time of treatment, 100 μl of luciferase assay reagent (SuperlightTM luciferase reporter Gene Assay Kit; BioAssay Systems) was added per well, and incubated for 2 min at RT, when luciferase activity was measured on a VictorTM X3 Multilabel Plate Reader. Results were presented relative to the positive control samples treated with 50 nM PMA. T‐cell activation was measured using 1 × 10^5 wild‐type Jurkat^Tat cells or PBMCs purified from healthy donors, treated as indicated. After 24 h, cells were incubated with 2.4G2 antibody to block nonspecific binding and further stained with 5 μl of anti‐human CD69 or an IgG1 isotype control antibody conjugated with PE‐Cy^Tm7. After 30‐min incubation on ice, the cells were washed twice with PBS and analyzed using a Becton Dickinson LSRII flow cytometer (BD Biosciences) to determine mean fluorescence intensity (MFI), using FlowJo software. The mean fluorescence intensity (MFI) obtained from cells stained with IgG isotype antibody control was subtracted from that from cells stained with CD69 to compensate for background (MFICD69‐MFIIgG). IL‐2 production was measured in cell culture supernatants using a human IL‐2 ELISA System (eBioscience). Jurkat^Tat clones bearing integrations of the mini‐dual HIV reporter virus, clone #11 and #131, were plated at 1 × 10^5 per well in a 96‐well plate format, treated for the indicated time, washed with 1 ml PBS, and then transferred into flow cytometry tubes, where they were fixed with freshly made 1% formaldehyde for 10 min at RT prior to analysis by flow cytometry. Results are presented as ΔMFI, where MFI obtained from parental Jurkat^Tat cells undergoing the same treated was subtracted from the MFI corresponding to each cell line; ΔMFI = (MFI compound‐treated cell line 131/11 − MFI compound‐treated WT Jurkat^Tat cells).
Background: Reporter assays use an easily measured gene product as a stand-in for the process of interest.

Assay [2] concerns latent HIV‐1 provirus in resting CD4^+ T cells from HIV‐1‐infected patients. Kind of assay: Supernatant HIV‐1 RNA from resting CD4+ T cells of patients (RT–qPCR). It is filed as cell-based. The note with it: 24 h. The method, then: For this analysis, we purified resting CD4^+ (rCD4^+) T lymphocytes from pools of patient samples by two‐step negative selection (Appendix Table S3). […] Purified rCD4^+ T cells were treated with 30 μM of each PH compound for 24 h, and RNA from the culture supernatants was analyzed by one‐step RT–qPCR, where results are presented as copy numbers of the virion/ml. […] Based on its capability for reactivating latent provirus at multiple chromosomal locations in cell lines, its negligible toxic effect, and that it produces the most robust reactivation of virus from patient samples, we focused our subsequent analysis on this compound (Table 1).
Figure 8 Effect of PH compounds on expression of HIV provirus in latently infected cells from patients Resting CD4^+ T cells purified from patient samples (n = 18, Appendix Table S3) were treated with 30 μM of each PH compound for 24 h, and HIV‐1 RNA was measured in culture supernatants. Results are presented as HIV virions/ml (mean ± SE). LOD indicates the limit of detection, 100 copies/ml culture supernatant. TEXT PRINTED IN THE PICTURE: PMA: Supernatant HIV-1 mRNA (Copies/ml): 308929.80 (50 nM) | PH01: Supernatant HIV-1 mRNA (Copies/ml): 5348.04 (Single Concentration (30μM)) | PH02: Supernatant HIV-1 mRNA (Copies/ml): 17624.53 (Single Concentration (30μM)) | PH03: Supernatant HIV-1 mRNA (Copies/ml): 4714.11 (Single Concentration (30μM)) | PH04: Supernatant HIV-1 mRNA (Copies/ml): 7134.68 (Single Concentration (30μM)) | PH05: Supernatant HIV-1 mRNA (Copies/ml): 587.19 (Single Concentration (30μM))
HIV‐1 RNA was measured from 1 × 10^6 resting CD4^+ T lymphocytes treated with 30 μM of each compound. Extracellular RNA was isolated using the ZR Viral RNA Kit (Zymo Research) and total cellular mRNA using the RNeasy MinElute cleanup kit (Qiagen). HIV‐1 RNA concentrations were assayed in one‐step RT–qPCRs using the iTaq™ universal SYBR Green one‐step kit (BIO‐RAD) with the HIV‐1 LTR‐specific primers, AGCCGCCTAGCATTTCATC and […]. RNA copy number was calculated using a standard curve generated from titrated infections with RGH‐PGK virus (Dahabieh et al, 2013). Reproducibility of RT–qPCR analysis was confirmed using a second set of primers within HIV‐1 p24 Gag, AGCAGCCATGCAAATGTTA, […]. HIV‐1 RNA determinations were normalized to GAPDH RNA measured using the primers […] and […].
For orientation: In qPCR the cycle at which signal appears reflects the starting amount.

The subject of assay [3] is HIV‐1 LTR (Jurkat^Tat LTR‐DsRed clone #11). Kind of assay: mdHIV LTR‐DsRed reporter assay, clone #11. It is filed as cell-based. As to conditions: PMA stimulation, of eGFP expressing cells. The source says:
HIV‐1 tends to integrate into actively transcribed regions of the host genome (Jordan et al, 2003; Lewinski et al, 2006; Ikeda et al, 2007). Each HIV‐1‐infected patient carries viral DNA integrated at different chromosomal locations, and as we have previously shown, the site of viral integration influences how latently infected T cells respond to different stimuli (Hashemi et al, 2016). Therefore, an ideal LRA should be capable of disrupting latency in cell models carrying integrated viral reporters at multiple different regions within the host genome. To assess this capability for the PH compounds, we used two additional previously described cell lines, designated Jurkat^Tat LTR‐DsRed clones #11, and #131, that carry a mini‐dual fluorescent HIV‐1 LTR reporter (mdHIV) at different chromosomal locations. The minivirus mdHIV has two fluorescent reporters in which DsRed expression is driven from the 5′ LTR, and eGFP is constitutively expressed from an internal EIF‐1α promoter (Fig 5A). […]
Figure 5 Effect of PH02 on HIV provirus integrated at different chromosomal locations • A The effect of PH compounds was analyzed using clonal lines bearing single‐copy integrations of the mini‐dual fluorescent HIV‐1 LTR reporter, md‐HIV, where GFP is constitutively expressed from the EIF‐1α internal promoter, and DsRed from the 5′ LTR. • B Fluorescence‐activated cell sorting (FACS) of cells bearing md‐HIV provirus indicates expression of EIF‐1α‐GFP and LTR‐dsRed. Stimulation of the md‐HIV lines generally causes a shift of the fluorescence profile from GFP^+/DsRed^− toward GFP^+/DsRed^+. • C, D Clone 11 or clone 131 was treated with the indicated concentrations of PH02 (left panels) or PH02 in combination with 10 nM PEP005 (right panels) for 24 h and cells analyzed by flow cytometry. Results presented as Δmean fluorescence intensity (ΔMFI) of DsRed expression and fold increase in DsRed expression for solo and combination treatments, respectively. Mean and SE are determined from three biological replicates (n = 3) and technical duplicates. […]

Another assay concerns HIV reservoir. The note with it: cited from earlier work.

Read-outs that look alike come from different tables or passages of the source.

Regarding `Cn1c(C=Cc2c[nH]c3ccccc23)nc2ccccc2c1=O` [PH01, 2‐[2‐(1H‐indol‐3‐yl)vinyl]‐3‐methyl‐4(3H)‐quinazolinone], the EC50 in assay [1] came to 141 nM. The “Supernatant HIV-1 mRNA” value in assay [2] (30 μM, LOD 100 copies/ml) turned out to be 5348.04 Copies/ml. With `COc1ccccc1N(/C=C1\Sc2ccccc2C1=O)C(C)=O` [PH02a, N-(2-methoxyphenyl)-N-[(3-oxo-1-benzothien-2(3H)-ylidene)methyl]acetamide], the “latency‐reversing activity of PH02 analogs compared with PH02” value in assay [1] was “significant reduction”. Turning to `COc1ccccc1N(C=O)/C=C1\Sc2ccccc2C1=O` [PH02b, (2-methoxyphenyl)[(3-oxo-1-benzothien-2(3H)-ylidene)methyl]formamide], in assay [1], the “latency‐reversing activity of PH02 analogs compared with PH02” value is on record as “significant reduction”. Take `Cl.Nc1ccc(-c2ccc3ccccc3n2)cc1` [PH03, 2‐(4‐aminophenyl)quinoline hydrochloride]: in assay [1], the EC50 was found to be 1250 nM. For the same compound, the “Supernatant HIV-1 mRNA” value in assay [2] (30 μM, LOD 100 copies/ml) was 4714.11 Copies/ml. As to `Cc1cc(I)cnc1NC(=S)NC(=O)c1ccco1` [PH04, N‐{[(5‐iodo‐3‐methyl‐2‐pyridinyl)amino]carbonothioyl}‐2‐furamide], the EC50 in assay [1] is 2560 nM. In addition, in assay [2] (30 μM, LOD 100 copies/ml), the “Supernatant HIV-1 mRNA” value was 7134.68 Copies/ml.

Consider `COc1cccc(-n2nnc(C(=O)Nc3ccc(C)cc3)c2C)c1` [PH05, 1‐(3‐methoxyphenyl)‐5‐methyl‐N‐(4‐methylphenyl)‐1H‐1,2,3‐triazole‐4‐carboxamide], for which, in assay [1], the EC50 came out at 5900 nM. Also, the “Supernatant HIV-1 mRNA” value in assay [2] (30 μM, LOD 100 copies/ml) was 587.19 Copies/ml. Consider `CCCCCCCCCCCCCC(=O)O[C@@H]1[C@@H](C)[C@@]2(O)[C@@H](C=C(CO)C[C@]3(O)C(=O)C(C)=C[C@@H]23)[C@@H]2C(C)(C)[C@]12OC(C)=O` [PMA, phorbol 12‐myristate 13‐acetate, reference compound], for which, in assay [3], the “cells producing dsRed expression upon stimulation” value is recorded as ~ 40%. For the same compound, the “Supernatant HIV-1 mRNA” value in assay [2] (50 nM, positive control) is given as 308929.80 Copies/ml. As for `Cc1[nH]c2ccccc2c1CCNCc1ccc(/C=C/C(=O)NO)cc1` [Panobinostat], the “reduction in the HIV reservoir” value in the assay on HIV reservoir (20 mg three times a week every other week for 8 weeks, ref Rasmussen et al, 2014) is reported as “did not produce a reduction in the HIV reservoir”.

Regarding `O=C(CCCCCCC(=O)Nc1ccccc1)NO` [Vorinostat, suberoylanilide hydroxamic acid], the “reduction in the HIV reservoir” value in the assay with HIV reservoir (400 mg daily for 14 days or 3 days a week for 8 weeks, ref Archin et al, 2014, Elliott et al) is given as “did not produce a reduction in the HIV reservoir”.

A word on the EC50: it is the midpoint of the concentration-response curve.
